{
  "source": "PubChem BioAssay AID1259408",
  "about": "(Genetic Toxicology Data Bank (GENE-TOX), 2018)",
  "test_system": "GENE-TOX genotoxicity assays, various organisms and cells",
  "experiment": "GENE-TOX mutagenicity studies",
  "source_text": "GENE-TOX provides genetic toxicology (mutagenicity) test data from expert peer review of open scientific literature for more than 3,000 chemicals from the United States Environmental Protection Agency (EPA). GENE-TOX was established to select assay systems for evaluation, review data in the scientific literature, and recommend proper testing protocols and evaluation procedures for these systems.\nGENE-TOX covers the years 1991 - 1998. It is no longer updated.\nThis is an archive assay for GENE-TOX mutagenicity studies.",
  "note": "Calls of active or inactive are those of the source. How the calls were made is not given here.",
  "data": [
    {"smiles": "CN(N=O)C(N)=O", "values": [
      {"measurement": "mutagenic call", "setting": "Species/Cell Type: Allium cepa, Assay Type: Chromosome aberrations, Assay Code: ALC+D, Dose Response: With dose response, Evaluation Type: Evaluation A (Pre-1980)", "result": "active; positive"},
      {"measurement": "mutagenic call", "setting": "Species/Cell Type: Arabidopsis species, Assay Type: Gene mutation, Assay Code: ARM+D, Dose Response: With dose response, Evaluation Type: Evaluation A (Pre-1980)", "result": "active; positive"},
      {"measurement": "mutagenic call", "setting": "Species/Cell Type: Chinese hamster lung (V79) cells, Assay Type: Forward gene mutation at the HPRT or ouabain locus, Assay Code: V79+, Evaluation Type: Evaluation A (Pre-1980)", "result": "active; positive"},
      {"measurement": "mutagenic call", "setting": "Species/Cell Type: Chinese hamster ovary (CHO) cells, Assay Type: Forward gene mutation at the HPRT locus, Assay Code: CHO+D, Dose Response: With dose response, Evaluation Type: Evaluation A (Pre-1980)", "result": "active; positive"},
      {"measurement": "mutagenic call", "setting": "Species/Cell Type: Drosophila melanogaster, Assay Type: Aneuploidy, partial sex chromosome loss, chromosome aberrations, Assay Code: DAP+M, Evaluation Type: Evaluation A (Pre-1980)", "result": "active; positive"},
      {"measurement": "mutagenic call", "setting": "Species/Cell Type: Drosophila melanogaster, Assay Type: Aneuploidy, whole sex chromosome loss, chromosome aberrations, Assay Code: DAC+M, Evaluation Type: Evaluation A (Pre-1980)", "result": "active; positive"},
      {"measurement": "mutagenic call", "setting": "Species/Cell Type: Drosophila melanogaster, Assay Type: Sex-linked recessive lethal gene mutation, Assay Code: SRL+, Evaluation Type: Evaluation A (Pre-1980)", "result": "active; positive"},
      {"measurement": "mutagenic call", "setting": "Species/Cell Type: Drosophila melanogaster, Sex: Male, Assay Type: Heritable translocation test, chromosome aberrations, Assay Code: DHT+, Evaluation Type: Evaluation A (Pre-1980)", "result": "active; positive"},
      {"measurement": "mutagenic call", "setting": "Species/Cell Type: Escherichia coli WP2, Assay Type: Tryptophan reverse gene mutation, Assay Code: WP2+, Evaluation Type: Evaluation A (Pre-1980)", "result": "active; positive"},
      {"measurement": "mutagenic call", "setting": "Species/Cell Type: Escherichia coli WP2 UVRA, Assay Type: Tryptophan reverse gene mutation, Assay Code: WPU+, Evaluation Type: Evaluation A (Pre-1980)", "result": "active; positive"},
      {"measurement": "mutagenic call", "setting": "Species/Cell Type: Escherichia coli polA (W3119 vs P3478), Assay Type: Rec-assay, DNA effects (bacterial DNA repair), Assay Code: RE1+, Evaluation Type: Evaluation A (Pre-1980)", "result": "active; positive"},
      {"measurement": "mutagenic call", "setting": "Species/Cell Type: Glycine max (soybean), Assay Type: Gene mutation, Assay Code: GLM+, Evaluation Type: Evaluation A (Pre-1980)", "result": "active; positive"},
      {"measurement": "mutagenic call", "setting": "Species/Cell Type: Hordeum vulgare (barley), Assay Type: Chromosome aberrations, Assay Code: HOC+, Evaluation Type: Evaluation A (Pre-1980)", "result": "active; positive"},
      {"measurement": "mutagenic call", "setting": "Species/Cell Type: Hordeum vulgare (barley), Assay Type: Gene mutation, Assay Code: HOM+, Evaluation Type: Evaluation A (Pre-1980)", "result": "active; positive"},
      {"measurement": "mutagenic call", "setting": "Species/Cell Type: Human cell culture, Assay Type: Chromosome aberrations in vitro, Assay Code: CYZ+, Evaluation Type: Evaluation A (Pre-1980)", "result": "active; positive"},
      {"measurement": "mutagenic call", "setting": "Species/Cell Type: Human diploid fibroblasts, Assay Type: Unscheduled DNA synthesis (UDS) in vitro, DNA effects, Assay Code: UDH+, Evaluation Type: Evaluation A (Pre-1980)", "result": "active; positive"},
      {"measurement": "mutagenic call", "setting": "Species/Cell Type: Human lymphocytes, Assay Type: Sister-chromatid exchange (SCE) in vitro, Assay Code: SCL+D, Dose Response: With dose response, Evaluation Type: Evaluation B (Post-1980)", "result": "active; positive"},
      {"measurement": "mutagenic call", "setting": "Species/Cell Type: Human, Assay Type: Sister-chromatid exchange (SCE) in vitro, Assay Code: SC1+D, Dose Response: With dose response, Evaluation Type: Evaluation B (Post-1980)", "result": "active; positive"},
      {"measurement": "mutagenic call", "setting": "Species/Cell Type: Mammalian polychromatic erythrocytes, Assay Type: Micronucleus test, chromosome aberrations, Assay Code: MNTT, Evaluation Type: Evaluation A (Pre-1980)", "result": "no conclusion"},
      {"measurement": "mutagenic call", "setting": "Species/Cell Type: Mouse germ cells, Sex: Male, Assay Type: Unscheduled DNA synthesis (UDS) in vivo, DNA effects, Assay Code: UDT+, Evaluation Type: Evaluation A (Pre-1980)", "result": "active; positive"},
      {"measurement": "mutagenic call", "setting": "Species/Cell Type: Mouse, Sex: Male, Assay Type: Sperm morphology, Assay Code: SPI+, Evaluation Type: Evaluation A (Pre-1980)", "result": "active; positive"},
      {"measurement": "mutagenic call", "setting": "Species/Cell Type: Neurospora crassa, Assay Type: Forward gene mutation, Assay Code: NEF+, Evaluation Type: Evaluation A (Pre-1980)", "result": "active; positive"},
      {"measurement": "mutagenic call", "setting": "Species/Cell Type: Neurospora crassa, Assay Type: Reverse gene mutation, Assay Code: NER+, Evaluation Type: Evaluation A (Pre-1980)", "result": "active; positive"},
      {"measurement": "call", "setting": "Species/Cell Type: Nonhuman, Assay Type: In vivo carcinogenicity studies, Assay Code: CCG+, Evaluation Type: Evaluation A (Pre-1980)", "result": "active; positive"},
      {"measurement": "mutagenic call", "setting": "Species/Cell Type: Nonhuman, Assay Type: Sister-chromatid exchange (SCE) in vitro, Assay Code: SC2+, Evaluation Type: Evaluation A (Pre-1980)", "result": "active; positive"},
      {"measurement": "mutagenic call", "setting": "Species/Cell Type: Nonhuman, Assay Type: Sister-chromatid exchange (SCE) in vitro, Assay Code: SC2+D, Dose Response: With dose response, Evaluation Type: Evaluation B (Post-1980)", "result": "active; positive"},
      {"measurement": "mutagenic call", "setting": "Species/Cell Type: Nonhuman, Assay Type: Sister-chromatid exchange (SCE) in vivo, Assay Code: SC3+D, Dose Response: With dose response, Evaluation Type: Evaluation B (Post-1980)", "result": "active; positive"},
      {"measurement": "mutagenic call", "setting": "Species/Cell Type: Rat primary hepatocytes, Assay Type: Unscheduled DNA synthesis (UDS) in vitro, DNA effects, Assay Code: UDP+, Evaluation Type: Evaluation A (Pre-1980)", "result": "active; positive"},
      {"measurement": "mutagenic call", "setting": "Species/Cell Type: Rodents, Sex: Male, Assay Type: Dominant lethal test, Assay Code: DLT-, Evaluation Type: Evaluation A (Pre-1980)", "result": "inactive; negative"},
      {"measurement": "mutagenic call", "setting": "Species/Cell Type: Saccharomyces cerevisiae, Assay Type: Aneuploidy, chromosome aberrations, Assay Code: YEN+, Evaluation Type: Evaluation A (Pre-1980)", "result": "active; positive"},
      {"measurement": "mutagenic call", "setting": "Species/Cell Type: Saccharomyces cerevisiae, Assay Type: Mitotic recombination or gene conversion, Assay Code: YEC+, Evaluation Type: Evaluation A (Pre-1980)", "result": "active; positive"},
      {"measurement": "mutagenic call", "setting": "Species/Cell Type: Saccharomyces cerevisiae, Assay Type: Reverse gene mutation, Assay Code: YER+, Evaluation Type: Evaluation A (Pre-1980)", "result": "active; positive"},
      {"measurement": "mutagenic call", "setting": "Species/Cell Type: Salmonella typhimurium (one or more of the five standard strains: TA98, TA100, TA1535, TA1537, and TA1538), Assay Type: Histidine reverse gene mutation, Ames assay, Assay Code: SAL+, Evaluation Type: Evaluation A (Pre-1980)", "result": "active; positive"},
      {"measurement": "mutagenic call", "setting": "Species/Cell Type: Salmonella typhimurium, Escherichia coli, Serratia marcesens, Assay Type: Forward and reverse gene mutation, host-mediated assay, Assay Code: HMN+, Evaluation Type: Evaluation A (Pre-1980)", "result": "active; positive"},
      {"measurement": "mutagenic call", "setting": "Species/Cell Type: Vicia faba, Assay Type: Chromosome aberrations, Assay Code: VIC+, Evaluation Type: Evaluation A (Pre-1980)", "result": "active; positive"},
      {"measurement": "mutagenic call", "setting": "Species/Cell Type: Zea mays (corn), Assay Type: Gene mutation, Assay Code: ZEM+D, Dose Response: With dose response, Evaluation Type: Evaluation A (Pre-1980)", "result": "active; positive"}
    ]}
  ]
}
